ChEMBL document CHEMBL3407376, “Identification of novel class of falcipain-2 inhibitors as potential antimalarial agents” (Bioorg Med Chem, 2015)
Activity calls are given as the source filed them. The calls are words filed in the database; no cut-off is given here.

Target: T1, Falcipain 2 (Plasmodium falciparum, UniProt Q9N6S8)
T1 sequence (Q9N6S8 whole entry): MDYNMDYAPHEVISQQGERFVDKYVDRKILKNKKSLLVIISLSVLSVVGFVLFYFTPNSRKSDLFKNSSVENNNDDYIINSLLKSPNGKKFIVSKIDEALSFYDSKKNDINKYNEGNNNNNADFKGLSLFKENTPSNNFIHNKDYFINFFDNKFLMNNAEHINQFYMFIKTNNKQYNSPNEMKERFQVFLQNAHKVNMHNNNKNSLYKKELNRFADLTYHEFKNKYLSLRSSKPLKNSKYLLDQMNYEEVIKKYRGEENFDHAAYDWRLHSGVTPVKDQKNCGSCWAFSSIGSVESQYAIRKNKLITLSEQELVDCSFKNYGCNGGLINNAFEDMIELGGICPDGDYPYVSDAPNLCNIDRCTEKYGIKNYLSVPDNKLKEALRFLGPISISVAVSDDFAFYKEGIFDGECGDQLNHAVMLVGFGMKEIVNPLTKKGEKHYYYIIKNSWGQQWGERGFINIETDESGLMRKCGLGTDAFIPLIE
Experiment: Inhibition of Plasmodium falciparum recombinant falcipain-2 using ZFR-AMC as substrate after 30 mins by fluorometric assay
Details: not given
For `CC(C)C[C@H](NC(=O)CN1CCN(C)CC1)C(=O)N[C@@H](CC(C)C)C(=O)N[C@@H](Cc1c[nH]c2ccccc12)C(=O)N1CCN=C1COc1ccc(F)cc1`, the Ki was 10.6 µM.
In the case of `CC(C)C[C@H](NC(=O)[C@H](CC(C)C)NC(=O)N1CCOCC1)C(=O)N[C@@H](Cc1c[nH]c2ccccc12)C(=O)N1CCC[C@H]1COc1ccc(F)cc1`, the Ki is reported as 0.4 µM.
In the case of `CC(C)C[C@H](NC(=O)[C@H](CC(C)C)NC(=O)N1CCCCC1)C(=O)N[C@@H](Cc1c[nH]c2ccccc12)C(=O)N1CCC[C@H]1COc1ccc(F)cc1`, the Ki is reported as 0.4 µM.
Compound `CC(C)C[C@H](NC(=O)CN1CCC(CCO)CC1)C(=O)N[C@@H](CC(C)C)C(=O)N[C@@H](Cc1c[nH]c2ccccc12)C(=O)N1CCC[C@H]1COc1ccc(F)cc1` has a Ki of 3.29 µM.
`COc1ccc(OC[C@@H]2CCCN2C(=O)[C@H](Cc2ccccc2)NC(=O)[C@H](CC(C)C)NC(=O)[C@H](CC(C)C)NC(=O)N2CCCCC2)cc1` showed a Ki of 0.3 µM.
In the case of `CC(C)C[C@H](NC(=O)[C@H](CC(C)C)NC(=O)N1CCOCC1)C(=O)N[C@@H](Cc1c[nH]c2ccccc12)C(=O)N1CCN=C1COc1ccc(F)cc1`, the Ki is reported as 1.8 µM.
With `CC(C)C[C@H](NC(=O)CN1CCN(C)CC1)C(=O)N[C@@H](CC(C)C)C(=O)N[C@@H](Cc1c[nH]c2ccccc12)C(=O)N1CCC[C@H]1COc1ccc(F)cc1` the Ki was 7.49 µM.
Compound `CC(C)C[C@H](NC(=O)[C@H](CC(C)C)NC(=O)N1CCOCC1)C(=O)N[C@H](C(=O)N1CCC[C@H]1COc1ccc(F)cc1)c1ccccc1` has a Ki of 1.1 µM.
In the case of `CC(C)C[C@H](NC(=O)CN1CCC(CCO)CC1)C(=O)N[C@@H](CC(C)C)C(=O)N[C@@H](Cc1c[nH]c2ccccc12)C(=O)N1CCN=C1COc1ccc(F)cc1`, the Ki is reported as 6.2 µM.
For `COC(=O)C1CCN(CC(=O)N[C@@H](CC(C)C)C(=O)N[C@@H](CC(C)C)C(=O)N[C@H](C(=O)N2CCC[C@H]2COc2ccc(F)cc2)c2ccccc2)CC1`, the Ki was > 100 µM.
With `CC(C)C[C@H](NC(=O)CN1CCC(O)CC1)C(=O)N[C@@H](CC(C)C)C(=O)N[C@@H](Cc1c[nH]c2ccccc12)C(=O)N1CCN=C1COc1ccc(F)cc1` the Ki was 13.6 µM.
`CC(C)C[C@H](NC(=O)[C@H](CC(C)C)NC(=O)N1CCCCC1)C(=O)N[C@@H](Cc1ccccc1)C(=O)NNc1ccccc1` gave a Ki of 0.8 µM.

System: Plasmodium falciparum
Experiment: Antimalarial activity against Plasmodium falciparum 3D7 infected in human erythrocytes after 48 hrs by SYBR green assay
Type: functional, organism-based
Details: not given
In the case of `CC(C)C[C@H](NC(=O)CN1CCN(C)CC1)C(=O)N[C@@H](CC(C)C)C(=O)N[C@@H](Cc1c[nH]c2ccccc12)C(=O)N1CCC[C@H]1COc1ccc(F)cc1`, the IC50 is reported as “Not Active”.
For `COC(=O)C1CCN(CC(=O)N[C@@H](CC(C)C)C(=O)N[C@@H](CC(C)C)C(=O)N[C@H](C(=O)N2CCC[C@H]2COc2ccc(F)cc2)c2ccccc2)CC1`, the IC50 was “Not Active”.

Same assay, conditions: Plasmodium falciparum, 3D7, 48 h; read-out: IC50
`CC(C)C[C@H](NC(=O)CN1CCN(C)CC1)C(=O)N[C@@H](CC(C)C)C(=O)N[C@@H](Cc1c[nH]c2ccccc12)C(=O)N1CCN=C1COc1ccc(F)cc1` gave an IC50 of 17.5 µM.
Work on `CC(C)C[C@H](NC(=O)[C@H](CC(C)C)NC(=O)N1CCOCC1)C(=O)N[C@@H](Cc1c[nH]c2ccccc12)C(=O)N1CCC[C@H]1COc1ccc(F)cc1` yielded an IC50 of 10 µM.
Compound `CC(C)C[C@H](NC(=O)[C@H](CC(C)C)NC(=O)N1CCCCC1)C(=O)N[C@@H](Cc1c[nH]c2ccccc12)C(=O)N1CCC[C@H]1COc1ccc(F)cc1` has an IC50 of 9.7 µM.
For `CC(C)C[C@H](NC(=O)CN1CCC(CCO)CC1)C(=O)N[C@@H](CC(C)C)C(=O)N[C@@H](Cc1c[nH]c2ccccc12)C(=O)N1CCC[C@H]1COc1ccc(F)cc1`, the IC50 was 6.7 µM.
`COc1ccc(OC[C@@H]2CCCN2C(=O)[C@H](Cc2ccccc2)NC(=O)[C@H](CC(C)C)NC(=O)[C@H](CC(C)C)NC(=O)N2CCCCC2)cc1` gave an IC50 of 35.7 µM.
For `CC(C)C[C@H](NC(=O)[C@H](CC(C)C)NC(=O)N1CCOCC1)C(=O)N[C@@H](Cc1c[nH]c2ccccc12)C(=O)N1CCN=C1COc1ccc(F)cc1`, the IC50 was > 5 µM.
Work on `CC(C)C[C@H](NC(=O)[C@H](CC(C)C)NC(=O)N1CCOCC1)C(=O)N[C@H](C(=O)N1CCC[C@H]1COc1ccc(F)cc1)c1ccccc1` yielded an IC50 of 0.9 µM.
For `CC(C)C[C@H](NC(=O)CN1CCC(CCO)CC1)C(=O)N[C@@H](CC(C)C)C(=O)N[C@@H](Cc1c[nH]c2ccccc12)C(=O)N1CCN=C1COc1ccc(F)cc1`, the IC50 was 18.8 µM.
Compound `CC(C)C[C@H](NC(=O)CN1CCC(O)CC1)C(=O)N[C@@H](CC(C)C)C(=O)N[C@@H](Cc1c[nH]c2ccccc12)C(=O)N1CCN=C1COc1ccc(F)cc1` has an IC50 of 10 µM.
Work on `CC(C)C[C@H](NC(=O)[C@H](CC(C)C)NC(=O)N1CCCCC1)C(=O)N[C@@H](Cc1ccccc1)C(=O)NNc1ccccc1` yielded an IC50 of 14.2 µM.

System: Plasmodium falciparum
Experiment: Antimalarial activity against Plasmodium falciparum Dd2 infected in human erythrocytes after 48 hrs by SYBR green assay
Type: functional
Details: Dd2, 48 h
Work on `CC(C)C[C@H](NC(=O)[C@H](CC(C)C)NC(=O)N1CCOCC1)C(=O)N[C@H](C(=O)N1CCC[C@H]1COc1ccc(F)cc1)c1ccccc1` yielded an EC50 of 7.5 µM.

System: Plasmodium falciparum
Experiment: Antimalarial activity against Plasmodium falciparum isolate MCamp infected in human erythrocytes after 48 hrs by SYBR green assay
Type: functional, organism-based
Details: not given
In the case of `CC(C)C[C@H](NC(=O)[C@H](CC(C)C)NC(=O)N1CCOCC1)C(=O)N[C@H](C(=O)N1CCC[C@H]1COc1ccc(F)cc1)c1ccccc1`, the EC50 is reported as 12.1 µM.

System: Plasmodium falciparum
Experiment: Selectivity ratio of EC50 for Plasmodium falciparum Dd2 to EC50 for Plasmodium falciparum 3D7
Type: functional
Details: not given
With `CC(C)C[C@H](NC(=O)[C@H](CC(C)C)NC(=O)N1CCOCC1)C(=O)N[C@H](C(=O)N1CCC[C@H]1COc1ccc(F)cc1)c1ccccc1` the “Ratio EC50” value was 8.

System: Plasmodium falciparum
Experiment: Selectivity ratio of EC50 for Plasmodium falciparum isolate MCamp to EC50 for Plasmodium falciparum 3D7
Type: functional
Details: not given
In the case of `CC(C)C[C@H](NC(=O)[C@H](CC(C)C)NC(=O)N1CCOCC1)C(=O)N[C@H](C(=O)N1CCC[C@H]1COc1ccc(F)cc1)c1ccccc1`, the “Ratio EC50” value is reported as 8.

System: Plasmodium falciparum
Experiment: Antimalarial activity against asexual stage Plasmodium falciparum assessed as growth arrest at trophozoite stage after 32 to 60 hrs relative to control
Type: functional, organism-based
Details: not given
In the case of `CC(C)C[C@H](NC(=O)[C@H](CC(C)C)NC(=O)N1CCOCC1)C(=O)N[C@H](C(=O)N1CCC[C@H]1COc1ccc(F)cc1)c1ccccc1`, the Activity is reported as “Active”.

System: Plasmodium falciparum
Experiment: Antimalarial activity against asexual stage Plasmodium falciparum assessed as abnormal parasites after 60 hrs relative to control
Type: functional, organism-based
Details: not given
For `CC(C)C[C@H](NC(=O)[C@H](CC(C)C)NC(=O)N1CCOCC1)C(=O)N[C@H](C(=O)N1CCC[C@H]1COc1ccc(F)cc1)c1ccccc1`, the Activity was “Active”.

System: CHO
Experiment: Cytotoxicity against CHO cells after 24 hrs by WST-1 assay
Type: cell-based
Details: Cricetulus griseus
Work on `COc1ccc(OC[C@@H]2CCCN2C(=O)[C@H](Cc2ccccc2)NC(=O)[C@H](CC(C)C)NC(=O)[C@H](CC(C)C)NC(=O)N2CCCCC2)cc1` yielded an IC50 of 40 µM.
For `CC(C)C[C@H](NC(=O)[C@H](CC(C)C)NC(=O)N1CCOCC1)C(=O)N[C@H](C(=O)N1CCC[C@H]1COc1ccc(F)cc1)c1ccccc1`, the IC50 was 168 µM.
With `CC(C)C[C@H](NC(=O)[C@H](CC(C)C)NC(=O)N1CCCCC1)C(=O)N[C@@H](Cc1ccccc1)C(=O)NNc1ccccc1` the IC50 was 99 µM.

System: not listed separately
Experiment: Selectivity ratio of IC50 for CHO cells to IC50 for Plasmodium falciparum
Type: ADME, cell-based
Details: hamster, read-out: Ratio IC50
Compound `CC(C)C[C@H](NC(=O)[C@H](CC(C)C)NC(=O)N1CCOCC1)C(=O)N[C@H](C(=O)N1CCC[C@H]1COc1ccc(F)cc1)c1ccccc1` has a selectivity ratio of 150.
